The values that follow come from patent US20210228500A1, “CELLULAR RETINOID BINDING PROTEIN ANTAGONISTS AND USES THEREOF” (CASE WESTERN RESRVE UNIVERSITY, priority 2018, published 2021).

“Also recorded” adds a separate entry of the source.

Series [1] has as its system visual cycle retinoids in mouse eye. The experiment in a line: Photobleaching and visual chromophore regeneration, ocular retinoid analysis. It counts as in vivo, Balb/cJ mice. The following applies: 0.25 mg 1.5 h prior to flash of light bleaching 75% of rhodopsin. How it is done:
Balb/cJ mice were dark adapted for at least 24 h before the experiment. […] After the light exposure, the mice were kept in dark and euthanized at time intervals between 1 min to 8 h. The eyes were removed, flash frozen in liquid nitrogen, and stored in −80° C. until retinoid analysis.
All procedures related to the retinoid analysis were done under dim red light. To extract retinoids, enucleated eyes were transferred to a glass/glass homogenizer and submerged in 1 mL of 40 mM hydroxylamine in a 1:1 solution of PBS/methanol (v/v). The eyes were thoroughly homogenized and incubated at RT for 20 min to allow derivatization of retinylaldehydes to retinaldehdye oximes. The retinoids were extracted with 4 mL of hexane. To facilitate the fraction separation, the samples were centrifuged at 5000 g for 10 min, after which the upper organic phase was collected in a glass test tube. The organic solvent was dried in a rotary SpeedVac, and the residual retinoids were redissolved in […] of hexanes, and subjected to HPLC analysis. Separation of retinoids was achieved on a normal phase column (Agilent Zorbax Sil 5 μm 4.6×250 mm) in a step gradient of ethyl acetate in hexane (1% for 10 min followed by 10% for 40 min at a constant flow rate of 1.5 mL min^−1). Elution of retinoids was monitored at 325 and 360 nm wavelengths. All-trans-retinyl esters, all-trans- and 11-cis-retinaldehdye oximes as well as atROL were identified based on their elution times and characteristic UV/vis spectra. Retinoids were quantified based on linear correlations between the amount of injected synthetic standards and the area under chromatographic peaks.
Next, we examined the impact of abn-CBD on vitamin A metabolism in vivo. For this purpose, we analyzed the flow of retinoids via the visual cycle during the regeneration of visual chromophore after exposure to bright light. […] The light intensity was set up to cause photoisomerization in 75% of rhodopsin as indicated by the decrease in the amount of 11-cis-retinal measured immediately after the light exposure (FIG. 7). […]

The target of series [2] is T1, RDH5 (Bos taurus, UniProt Q27979).
T1 construct: from tissue; host or cells: bovine RPE microsomes
T1 sequence (Q27979 1-318): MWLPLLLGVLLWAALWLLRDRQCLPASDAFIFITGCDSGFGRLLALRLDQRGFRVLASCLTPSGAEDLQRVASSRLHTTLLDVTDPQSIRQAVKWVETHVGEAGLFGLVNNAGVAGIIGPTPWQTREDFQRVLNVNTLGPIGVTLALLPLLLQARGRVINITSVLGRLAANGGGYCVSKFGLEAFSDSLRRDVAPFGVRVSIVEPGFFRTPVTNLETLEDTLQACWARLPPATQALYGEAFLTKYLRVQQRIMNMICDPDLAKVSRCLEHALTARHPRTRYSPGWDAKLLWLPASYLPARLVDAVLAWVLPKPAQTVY
The experiment in a line: 11-cis-retinol oxidation assay. It counts as biochemical. The following applies: bovine RPE microsomes preincubated with 10-50 μM. Here is the method:
Dehydrogenase activity was assayed by monitoring oxidation of 11-cis-retinol to a corresponding aldehyde in bovine RPE microsomes. The reaction mixture containing 20 mM Tris/HCl buffer, pH 8.0, 1% BSA (w/v), 20 μM NAD+, and RPE microsomes (˜100 μg of total protein) in the total volume of 0.1 mL. 11-cis-Retinol (10 μM) was incubated at 30° C. for 10 min. The reaction was stopped by 0.2 mL of methanol that contained 40 mM hydroxylamine. After subsequent 15 min of incubation at RT, the retinoids were extracted with 0.3 mL of hexane and analyzed by normal-phase HPLC as described for the retinol esterification assay.
Thus, to further probe the biological effect of this compound, we tested its effect on the key enzymes of the visual cycle. For this purpose, microsomes isolated from bovine RPE cells were preincubated with 10-50 μM of abn-CBD (1:1 to 1:5 molar excess of cannabinoid) prior to the initiation of the esterification, isomerization, or oxidation reactions by addition of an adequate retinoid substrate.

Series [3] relates to Balb/cJ mice. The experiment in a line: Electroretinography (ERG) after photobleach. It counts as in vivo. The following applies: 30 mg kg^−1; scotopic ERG 4 h after flash of light. Here is the method: Before the ERG recording, dark-adapted Balb/cJ mice were anesthetized with 20 mg mL^−1 ketamine and 1.75 mg mL^−1 xylazine in PBS at a dose of 0.1-0.13 mL per 25 g of body weight, and pupils were dilated with 1% tropicamide. Contact lens electrodes were placed on the eyes, and a reference electrode was positioned between two ears, while ground electrode was placed on the tail. Scotopic ERGs were recorded for both eyes of each mouse using a UTAS E-3000 universal testing and ERG system (LKC Technologies).
To quantify the effect of the CRBP1 inhibitor on the recovery of visual sensitivity after a light stimulus, we measured full-field electroretinography (ERG) responses in mice. Prior to the illumination, the animals were either treated with DMSO (vehicle) or abn-CBD. Both drugs were administrated in a dose of 30 mg kg^−1. Scotopic ERG responses at varying light intensities were recorded 4 h after the exposure to a flash of light that photobleached ˜50% of the visual pigment. […] However, even in a relatively high dose used in this experiment, the inhibitor of CRBP1 had much smaller impact on the visual cycle without causing its blockage, as it was reported for retinylamine and emixustat.

Turning to `C=C(C)[C@@H]1CCC(C)=C[C@H]1c1c(O)cc(O)cc1CCCCC` [abn-CBD, 4-[(1R,6R)-3-Methyl-6-prop-1-en-2-ylcyclohex-2-en-1-yl]-5-pentylbenzene-1,3-diol], in series [1], the “atROL level during chromophore regeneration” value is reported as “transient accumulation of atROL”, the “rate of 11-cis-retinaldehyde regeneration” value is on record as “noticeably slower” and the “rate of all-trans-retinaldehyde clearance vs control” value was “no differences”. Moreover, the “effect on enzymatic activity of RDH5” value in series [2] is “did not cause a measurable decline”. Moreover, in series [3], the “recovery of a-wave and b-wave amplitudes (dark adaptation)” value is “slower; also recorded: slight delay in the dark adaptation”.
